Data taken from US9820497B2, “Astaxanthin-containing pet foods” (FUJI CHEMICAL INDUSTRY CO., LTD, priority 2003, dated 2017).

Assays:
[1] = as high as β-carotene; cited from earlier work
[2] = system: dogs; test: Health conditions of the dogs before and during administration; type: in vivo, dog; settings: four dogs, before and during the 4 weeks of administration
Description: (§1) Four dogs were fed only with the same commercially available dog food for 3 months or more, and thereafter, two AstaReal tablets (manufactured by Natureal Corporation, containing 0.67 mg of free astaxanthin per tablet in terms of free astaxanthin) per day were given to the dogs at dinner for 4 weeks. […] The feces discharged before and after administration of astaxanthin were collected. Samples were prepared each by taking a piece from the top portion, middle portion and end portion in the same amount and mixing these pieces. The samples were placed in a shielded vessel of 100 ml in volume and kept in dark and used in tests within 24 hours.

[3] = known; cited from earlier work
[4] = Feces odor test (odor tester KALMOR-Σ) before and after administration; type: in vivo, dog; settings: four dogs, 4 weeks of administration; conclusion from Table 3
Description: as §1
Odor of the samples was measured by an odor tester (KALMOR-Σ, manufactured by Kalmor Co.) in a room maintained at 22° C. To explain more specifically, the odor of an airtight vinyl bag of 280 mm×200 mm containing no sample was measured as an initial value by inserting a test probe. Then, 100 mg of sample was weighed, placed in the vinyl bag and stand still for 15 minutes. The odor of the vinyl bag having the sample placed therein was measured (measured value). The value of the odor was obtained by subtracting the initial value from the measured value.

SMILES: CC1=C(/C=C/C(C)=C/C=C/C(C)=C/C=C/C=C(C)/C=C/C=C(C)/C=C/C2=C(C)C(=O)C(O)CC2(C)C)C(C)(C)CC(O)C1=O (stereo not drawn) [astaxanthin, 3,3′-dihydroxy-β,β-carotene-4,4′-dione]
- antioxidative action relative to β-carotene [1]: about 40 times
- health conditions (diarrhea, fatigue) [2]: healthy conditions without exhibiting diarrhea and fatigue
- mutagenicity [3]: no mutagenicity is observed
- odor of the excrement [4]: clearly is decreased
